Measurements reported in paper PMC8246065 (The EMBO Journal, 2021).

Columns and labels:
[1] = molecular target: NOD2 (Homo sapiens, UniProt Q9HC29); test: Microscale thermophoresis (MST) binding to purified NOD2-GFP
Procedure: (§1) The lysates were incubated with 2 ml GFP‐Trap agarose at 4°C for 4 h. The agarose was collected with Poly‐Prep columns by gravity flow. […] To remove heat shock proteins, columns were further washed with 50 ml wash buffer III (50 mM Tris–HCl, pH 7.5, 150 mM NaCl, 5 mM MgCl2+, 1 mM ATP). To elute the proteins, the agarose was mixed with 2 ml elution buffer (100 mM Glycine, pH 2.5) for 1 min and the eluted proteins were immediately neutralized with 0.2 ml of 1 M Tris, pH 10.5.

[2] = molecular target: T1, NOD1 (Homo sapiens, UniProt Q9Y239); test: Microscale thermophoresis (MST) binding to purified NOD1-GFP
T1 sequence (Q9Y239 1-953): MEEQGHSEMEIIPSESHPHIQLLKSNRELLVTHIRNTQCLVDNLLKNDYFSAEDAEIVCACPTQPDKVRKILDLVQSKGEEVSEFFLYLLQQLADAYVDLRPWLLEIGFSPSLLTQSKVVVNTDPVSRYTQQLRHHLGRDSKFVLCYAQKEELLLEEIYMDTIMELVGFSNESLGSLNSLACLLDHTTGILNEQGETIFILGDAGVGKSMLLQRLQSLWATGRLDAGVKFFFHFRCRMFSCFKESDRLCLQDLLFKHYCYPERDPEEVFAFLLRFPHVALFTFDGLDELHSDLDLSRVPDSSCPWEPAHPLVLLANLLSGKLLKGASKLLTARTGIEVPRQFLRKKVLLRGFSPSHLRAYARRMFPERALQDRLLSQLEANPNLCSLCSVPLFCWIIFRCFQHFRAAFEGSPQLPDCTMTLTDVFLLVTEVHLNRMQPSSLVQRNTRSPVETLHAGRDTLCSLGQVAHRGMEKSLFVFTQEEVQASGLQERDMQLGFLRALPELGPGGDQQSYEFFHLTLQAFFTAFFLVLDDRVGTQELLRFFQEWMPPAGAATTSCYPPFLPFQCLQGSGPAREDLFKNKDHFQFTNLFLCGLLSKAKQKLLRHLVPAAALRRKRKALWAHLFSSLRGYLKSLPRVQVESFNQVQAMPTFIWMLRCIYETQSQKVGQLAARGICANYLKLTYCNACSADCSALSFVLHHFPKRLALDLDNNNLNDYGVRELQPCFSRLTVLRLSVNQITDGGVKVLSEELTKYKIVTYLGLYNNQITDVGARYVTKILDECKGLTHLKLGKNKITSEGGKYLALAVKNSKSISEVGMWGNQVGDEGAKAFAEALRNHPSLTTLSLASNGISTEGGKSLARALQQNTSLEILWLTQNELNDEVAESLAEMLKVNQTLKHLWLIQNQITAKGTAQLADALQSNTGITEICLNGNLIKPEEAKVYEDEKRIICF
Procedure: as §1

[3] = test system: NOD1; set-up: method as in Askari et al, 2012; details: quoted by referee; ref Askari et al, 2012; read-out: NOD1 affinity, IC50; cited from earlier work
[4] = test system: HeLa inducible NOD1 or NOD2 cells; test: ELISA of IL6/IL8 in supernatants of HeLa inducible NOD1 or NOD2 cells; assay type: cell-based, human; details: for IL6 production in the presence of dynasore: Dynasore 50 µM, Fig EV1D,E (S2B-S2E in rebuttal)
Procedure: (§2) To differentiate THP‐1 into macrophage‐like cells, THP‐1 cells were stimulated with 50 ng/ml phorbol 12‐myristate 13‐acetate (Sigma‐Aldrich, P8139) for 24 h and then incubated with fresh medium for another 48 h. […] To induce NOD1 or NOD2 expression, HeLa NOD1 or NOD2 cells were treated with 0.5 µg/ml or 0.25 µg/ml doxycycline for at least 16 h, respectively. All cells have been checked for mycoplasma contamination regularly. Bone marrow‐derived macrophages (BMDMs) were obtained from tibial and femural bones and generated with DMEM containing 20% L929 cell supernatant, 10% FBS, 5% heat‐inactivated horse serum, 1 mM sodium pyruvate, and 2 mM L‐glutamine. For BMDM stimulation experiments, BMDMs were treated with IFN‐γ (20 ng/ml) overnight before stimulation.

[5] = test system: THP‐1 cells; test: IL6 expression and production in THP-1 cells upon ER stress (de novo vs hydrolysis pathway inhibitors); assay type: cell-based, human; details: THP-1, tunicamycin 5 µg/ml, Appendix Fig S2
Procedure: The human monocytic cell line THP‐1 was obtained from the American Type Culture Collection (ATCC, TIB‐202) and maintained in RPMI 1640 (Gibco, 31870) with 10% (v:v) heat‐inactivated fetal bovine serum (FBS, Sigma‐Aldrich, F0804), 1 mM sodium pyruvate (Gibco, 11360070), 2 mM L‐glutamine (Gibco, 25030081), 10 mM HEPES buffer (Gibco, 15630080), pH 7.2‐7.5, and 50 µM 2‐mercaptoethanol (Gibco, 31350010). To differentiate THP‐1 into macrophage‐like cells, THP‐1 cells were stimulated with 50 ng/ml phorbol 12‐myristate 13‐acetate (Sigma‐Aldrich, P8139) for 24 h and then incubated with fresh medium for another 48 h. HEK293T WT and HEK293T NOD1/2 dKO cells were generated as described (Dagil et al, 2016). HeLa inducible NOD1‐GFP and NOD2‐GFP cells were generated by co‐transfection of pcDNA5/FRT/TO‐EGFP‐NOD1 or pcDNA5/FRT/TO‐EGFP‐NOD2 (Addgene #131206 and #131207) together with pOG44 in a 9:1 ratio into HeLa FlpIN T‐REx cells (kindly provided by the Hentze Lab, EMBL, Heidelberg) using Lipofectamine 2000 (Thermo Fisher Scientific) and selected with 10 µg/ml blasticidin and 500 µg/ml hygromycin B. HeLa inducible NOD1‐GFP and NOD2‐GFP cells, human neonatal dermal fibroblasts, and HEK293T cells (DSMZ, ACC305) were maintained in complete Dulbecco’s modified Eagle’s medium (DMEM) 4.5 g/l glucose (Gibco, 10938) with 10% (v:v) heat‐inactivated FBS, 1 mM sodium pyruvate, and 2 mM L‐glutamine. To induce NOD1 or NOD2 expression, HeLa NOD1 or NOD2 cells were treated with 0.5 µg/ml or 0.25 µg/ml doxycycline for at least 16 h, respectively. All cells have been checked for mycoplasma contamination regularly. […]
(§3) Total RNA was isolated with TRIzol reagent, as described by the manufacturer (Invitrogen). […] Gene expression was normalized to glyceraldehyde‐3‐phosphate dehydrogenase (GAPDH), and fold changes were calculated against corresponding controls. qRT–PCR data were representative of at least three independent experiments, with at least 2 technical replicates per experiment. […]

[6] = test system: HEK293T NOD1/2 KO cells transfected with NOD1 or NOD2 mutants; test: IL8 ELISA of HEK293T cells transfected with NOD1/NOD2 mutants; assay type: cell-based, human; details: for IL8 production in cells expressing LRR-deficient NOD1/2 (NOD1/2∆LRR): 20 µM with digitonin, 20 h
Procedure: as §2
The mutagenesis was performed with Q5® site‐directed mutagenesis kit (E0554, NEB) according to the manufacturer's instructions. The primers used in this study were as follows: NOD1 E157A F: 5′‐[…]gcg[…]‐3′, NOD1 E157A R: 5′‐[…]‐3′, NOD1 D161A F: 5′‐[…]gcg[…]‐3′, NOD1 D161A R: 5′‐[…]‐3′, NOD1 D203A F: 5′‐[…]gcg[…]‐3′, D203A R: 5′‐[…]‐3′, L218A F: 5′‐[…]gcg[…]‐3′, L218A R: 5′‐[…]‐3′, R237A F: 5′‐[…]gcg[…]‐3′, R237A R: 5′‐[…]‐3′, H257A F: 5′‐[…]gcg[…]‐3′, H257A R: 5′‐[…]‐3′, E267A F: 5′‐[…]gcg[…]‐3′, E267A R: 5′‐[…]‐3′, H290A F: 5′‐[…]gcg[…]‐3′, H290A R: 5′‐[…]‐3′, E306A F: 5′‐[…]gcg[…]‐3′, E306A R: 5′‐[…]‐3′, K324A F: 5′‐[…]gcg[…]‐3′, K324A R: 5′‐[…]‐3′, K328A F: 5′‐[…]gcg[…]‐3′, K328A R: 5′‐[…]‐3′, R340A F: 5′‐[…]gcg[…]‐3′, R340A R: 5′‐[…]‐3′, R344A F: 5′‐[…]gcg[…]‐3′, R344A R: 5′‐[…]‐3′, R350A F: 5′‐[…]gcg[…]‐3′, R350A R: 5′‐[…]‐3′, D372A F: 5′‐[…]gcg[…]‐3′, D372A R: 5′‐[…]‐3′, R373A F: 5′‐[…]gcg[…]‐3′, R373A R: 5′‐[…]‐3′, R399A F: 5′‐[…]gcg[…]‐3′, R399A R: 5′‐[…]‐3′, D423A F: 5′‐[…]gcg[…]‐3′, D423A R: 5′‐[…]‐3′, R435A F: 5′‐5′‐[…]gcg[…]‐3′, R435A R: 5′‐[…]‐3′, Q484A F: 5′‐[…]gcg[…]‐3′, Q484A R: 5′‐[…]‐3′, L495A F: 5′‐[…]gcg[…]‐3′, L495A R: 5′‐[…]‐3′, E514A F: 5′‐[…]gcg[…]‐3′, E514A R: 5′‐[…]‐3′, H517A F: 5′‐[…]gcg[…]‐3′, H517A R: 5′‐[…]‐3′, L540A F: 5′‐[…]gcg[…]‐3′, L540A R: 5′‐[…]‐3′, F544A F: 5′‐[…]gcg[…]‐3′, and F544A R: 5′‐[…]‐3′.

[7] = test system: HDFs and HeLa inducible NOD1 or NOD2 cells; test: IL6 expression and production in response to various stressors with sphingosine kinase inhibition; assay type: cell-based, human; details: SPHKi 50 µM (Fig 3D-G)
Procedure: (§4) The human monocytic cell line THP‐1 was obtained from the American Type Culture Collection (ATCC, TIB‐202) and maintained in RPMI 1640 (Gibco, 31870) with 10% (v:v) heat‐inactivated fetal bovine serum (FBS, Sigma‐Aldrich, F0804), 1 mM sodium pyruvate (Gibco, 11360070), 2 mM L‐glutamine (Gibco, 25030081), 10 mM HEPES buffer (Gibco, 15630080), pH 7.2‐7.5, and 50 µM 2‐mercaptoethanol (Gibco, 31350010). To differentiate THP‐1 into macrophage‐like cells, THP‐1 cells were stimulated with 50 ng/ml phorbol 12‐myristate 13‐acetate (Sigma‐Aldrich, P8139) for 24 h and then incubated with fresh medium for another 48 h. HEK293T WT and HEK293T NOD1/2 dKO cells were generated as described (Dagil et al, 2016). […]
as §3

[8] = test system: THP‐1 cells, BMDMs, and human CD14+ monocytes; test: IL6 expression and production upon tunicamycin-induced ER stress with sphingolipid pathway inhibitors; assay type: cell-based; details: inhibitor pretreatment, tunicamycin 5 µg/ml; all types of cells
Procedure: as §4, §3

Chain of NOD2 (Q9HC29 whole entry): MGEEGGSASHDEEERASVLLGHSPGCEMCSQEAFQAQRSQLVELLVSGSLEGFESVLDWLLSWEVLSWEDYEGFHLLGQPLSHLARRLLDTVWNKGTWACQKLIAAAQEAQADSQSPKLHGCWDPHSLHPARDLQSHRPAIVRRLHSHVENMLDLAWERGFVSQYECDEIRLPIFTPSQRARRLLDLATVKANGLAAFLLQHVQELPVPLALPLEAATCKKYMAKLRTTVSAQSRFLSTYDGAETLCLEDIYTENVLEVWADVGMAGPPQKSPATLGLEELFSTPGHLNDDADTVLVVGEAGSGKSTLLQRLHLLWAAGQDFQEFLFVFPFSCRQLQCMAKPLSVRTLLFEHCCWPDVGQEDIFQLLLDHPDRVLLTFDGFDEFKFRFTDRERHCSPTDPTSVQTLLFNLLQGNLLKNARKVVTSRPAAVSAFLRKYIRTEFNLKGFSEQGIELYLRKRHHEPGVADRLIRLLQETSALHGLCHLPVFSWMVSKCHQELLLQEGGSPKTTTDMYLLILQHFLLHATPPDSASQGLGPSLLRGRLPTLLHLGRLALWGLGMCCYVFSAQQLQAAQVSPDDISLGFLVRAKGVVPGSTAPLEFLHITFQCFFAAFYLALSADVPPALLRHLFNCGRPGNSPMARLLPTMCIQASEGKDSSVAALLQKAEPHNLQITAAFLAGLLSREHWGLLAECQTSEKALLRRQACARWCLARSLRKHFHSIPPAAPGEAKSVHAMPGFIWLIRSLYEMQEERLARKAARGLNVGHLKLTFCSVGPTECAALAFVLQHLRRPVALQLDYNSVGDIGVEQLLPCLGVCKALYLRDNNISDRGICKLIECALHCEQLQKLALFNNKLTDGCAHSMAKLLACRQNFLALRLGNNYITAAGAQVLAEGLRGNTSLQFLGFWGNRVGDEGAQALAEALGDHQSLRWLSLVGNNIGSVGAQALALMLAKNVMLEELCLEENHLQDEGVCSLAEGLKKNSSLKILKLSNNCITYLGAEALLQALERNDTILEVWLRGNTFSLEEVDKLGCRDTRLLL

Compound: Nc1ncnc2c1ncn2[C@@H]1O[C@H](COP(=O)(O)OP(=O)(O)O)[C@@H](O)[C@H]1O [ADP]
- Kd ([1]; read-out: Kd value of ADP alone with NOD2): ~150 nM
- Kd ([2]; read-out: Kd value of ADP alone with NOD1): ~100 nM
- IC50 [3]: ~190 nM

Compound: Nc1ncnc2c1ncn2[C@@H]1O[C@H](COP(=O)(O)OP(=O)(O)OP(=O)(O)O)[C@@H](O)[C@H]1O [ATP]
- IC50 [3]: ~15 nM

Compound: CCCCCCCCCCCCC/C=C/[C@@H](O)[C@H](CO)NC(=O)CCCCCCCCCCCCCCC [C16 ceramide]
- Interaction with NOD2 by MST ([1]; Fig EV5C): not detected
- Interaction with NOD1 by MST ([2]; Fig EV5B): not detected
- IL6 production ([4]; lipid 10 µM, Appendix Fig S3E,F): did not induce IL6 production

Compound: O=C(/C=C/c1ccc(/C=C/C(=O)Nc2ccc(C3=NCCN3)cc2)cc1)Nc1ccc(C2=NCCN2)cc1 [GW4869]
- IL6 expression and production upon ER stress [5]: not

Compound: N[C@H]1CON=C1O [L‐cycloserine]
- IL6 expression and production upon ER stress [5]: not

Compound: CC(=O)N[C@@H]1[C@@H](O[C@H](C)C(=O)N[C@@H](C)C(=O)N[C@H](CCC(=O)O)C(N)=O)[C@H](O)[C@@H](CO)O[C@H]1O [MDP]
- IL8 production in cells expressing LRR-deficient NOD1/2 (NOD1/2∆LRR) [6]: not
- IL8 production / activation in HEK293T cells expressing NOD2 1007fs ([6]; 20 µM, 48 h, digitonin): unresponsive
- Binding affinity of NOD2 for MDP in the presence or absence of S1P ([1]; Fig 6H, S1P 2 µM): not affected
- IL6 production in the presence of dynasore [4]: impaired

Compound: Oc1ccc(Nc2nc(-c3ccc(Cl)cc3)cs2)cc1 [SKI‐II]
- IL6 expression and production in response to various stressors [7]: markedly diminished
- IL6 expression and production upon tunicamycin-induced ER stress [8]: abolished

Compound: COc1ccc(/C=C/C(=O)c2c(-c3ccccc3)c3ccccc3[nH]c2=O)cc1 [ceranib‐2]
- IL6 expression and production upon tunicamycin-induced ER stress [8]: abolished

Compound: N[C@H](CCC(=O)N[C@H](CCC[C@H](N)C(=O)O)C(=O)O)C(=O)O [iE-DAP]
- IL8 production in cells expressing LRR-deficient NOD1/2 (NOD1/2∆LRR) [6]: not
- Activation (IL8) of NOD1 K328A or H517A ([6]; Fig EV5H): activated
- Binding affinity of NOD1 for iE-DAP in the presence or absence of S1P ([2]; Fig 6G, S1P 2 µM): not affected
- IL6 production in the presence of dynasore [4]: impaired

Compound: CN(C)CCCN1c2ccccc2CCc2ccccc21 [imipramine]
- IL6 expression and production upon ER stress [5]: abrogated
